{"source": "patent US20070270349A1", "about": "“Glutathione Derivatives and Their Uses for the Treatment of Viral Diseases” (priority 2003, published 2007)", "key": {"Sendai virus": {"test_system": "Sendai virus", "test": "Sendai virus replication in MDCK cells, hemagglutinating activity in supernatant", "format": "cell-based", "details": "for EC50 / inhibition at 5000 µM: Respirovirus muris; for EC50: 48 h, MDCK cells, read-out: 50% of inhibition of viral reproduction (EC50); for inhibition at 5000 µM: MDCK, 5 mM", "method": "To measure the behavior of GSH-C4 derivatives in infected cells, Madin Darby canine kidney cells (MDCK) were grown in RPMI 1640 to which 5% of heat-decomplemented bovine fetal serum (Flow Laboratories, Italy) was added.\n(§1) The Senday virus (SV) belonging to the Paramyxovirus family is a virus with non-segmented single stranded RNA of negative polarity. This virus was reproduced by inoculation in the allantoic liquid of embryonated chicken eggs. The monolayers of MDCK cells were infected with SV [3 hemagglutinating units (HAU)×10^5 cells]. After incubation for 1 hour at 37° C. (adsorption period), the unadsorbed viruses were removed, the monolayers were washed and then incubated in a complete medium containing 2% of bovine fetal serum. The production of viruses by infected cells was determined in the cellular supernatants at different intervals of time from infection (p.i.), measuring the hemagglutinating activity towards type 0 Rh+ human erythrocytes (HAU), according to standard procedures. […] Monkey kidney cells (VERO) were grown in RPMI, to which 5% of serum was added. The human herpes simplex virus type 1 (HSV-1), clinically isolated (TV1), was grown and titered in the Vero cells as described in Palamara, A. T., Perno, C. F., Ciriolo, M. R., Dini, L., Balestra, E., D'Agostini, C. et al. (1995). […] Antiviral Research 27, 237-253.\nMDCK cells were infected for 1 hour with 3 hemagglutinating units (HAU)×10^5 cells. The cells were washed and then cultivated in the presence of different concentrations of GSH-C4 (range 0-7.5 mM) for 2 days. Production of the virus was assayed at 24 hours (panel A) and 48 hours (panel B) measuring the hemagglutinating activity on type 0 Rh+ human erythrocytes."}, "erythrocytes (RBCs)": {"test_system": "erythrocytes (RBCs)", "test": "Entry into erythrocytes, oil-stop method", "format": "in vitro ADME", "details": "calculated in the first 30 minutes, 37° C., 10% hematocrit", "method": "The entry of GSH and GSH-C4 into erythrocytes (RBCs) at 37° C. in microcentrifugal test-tubes was measured using the oil-stop method. […] A Manual of Biochemical Methods, 3rd edn. Grune & Stratton, New York)."}, "HSV-1": {"test_system": "HSV-1", "test": "HSV-1 replication in Vero cells, plaque assay", "format": "cell-based, human herpes simplex virus type 1", "method": "as §1\n(§2) To obtain the viral infection, monolayers of Vero cells were infected with HSV-1 at a MOI (multiplicity of infection) of 0.03 PFU/cell. After incubation for 1 hour at 37° C. (adsorption period) the unadsorbed viruses were removed, the monolayers were washed and then incubated with culture medium containing 2% bovine fetal serum. GSH-C4 was added in identical doses to the ones indicated above immediately after the adsorption period and was maintained in the culture medium until completion of the experiments. Supernatants from infected cells were collected at different times after contact with the virus and tested for the ability to form plaques in Vero cells, using a standard titration method. Similar experiments were also conducted on HSV-1 TK-D305.\nVero cells were infected for 1 hour with HSV-1 at a MOI of 0.03 PFU/cell. After repeated washings, GSH-C4 was added at different concentrations (range 0-10 mM) to the cell cultures. Replication of the viruses was tested in the Vero cells 48 h after infection using the plaque technique."}, "[1]": {"test_system": "glutathione S-transferase (E.C.2.5.1.18.)", "test": "Glutathione S-transferase activity in hemolyzed human blood with GSH or GSH-C4 as substrate", "format": "biochemical", "details": "2 mM substrate", "method": "(§3) Enzymatic determinations of the activity of glutathione peroxidase (E.C.1.11.1.9.) and glutathione S-transferase (E.C.2.5.1.18.) in hemolyzed human blood in the presence of GSH and of its derivative GSH-C4 were carried out according to the methods of Beutler (Beutler, E., 1984, Red Cell Metabolism. A Manual of Biochemical Methods, 3rd edn. Grune & Stratton, New York). GSH and GSH-C4 were then oxidized by incubation at ambient temperature in the presence of 35% (v/v) H2O2 to respectively obtain GSSG and C4-GSSG-C4.\n(§4) The enzymatic activities of glutathione peroxydase and glutathione S-transferase were measured in hemolyzed human blood in the presence of GSH-C4 or GSH 2 mM as substrates. […] Moreover, GSH and GSH-C4 were chemically oxidized in the corresponding disulphide forms (GSSG and C4-GSSG-C4)."}, "HSV-1 TK−": {"test_system": "HSV-1 TK−", "test": "HSV-1 TK- (Δ305) replication in Vero cells, plaque forming units", "format": "cell-based, human herpes simplex virus type 1", "method": "as §2\nVero cells were infected for 1 h at 37° C. with the strain Δ305 and then kept in culture in the presence of different concentrations of GSH-C4. The production of viruses was measured 24, 48 and 72 h after infection by assay of the plaque forming units."}, "[2]": {"target": "T1, glutathione peroxidase (E.C.1.11.1.9.) (Homo sapiens, UniProt P07203)", "T1 construct": "measured in hemolyzed human blood; from tissue; host or cells: hemolyzed human blood", "T1 sequence (P07203 1-203)": "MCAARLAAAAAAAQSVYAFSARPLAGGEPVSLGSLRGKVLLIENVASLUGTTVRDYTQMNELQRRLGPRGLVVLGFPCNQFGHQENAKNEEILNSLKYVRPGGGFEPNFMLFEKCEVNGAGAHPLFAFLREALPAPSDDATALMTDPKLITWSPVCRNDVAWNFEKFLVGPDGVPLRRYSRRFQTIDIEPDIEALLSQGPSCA", "test": "Glutathione peroxidase activity in hemolyzed human blood with GSH or GSH-C4 as substrate", "format": "biochemical", "details": "2 mM substrate", "method": "as §3, §4"}, "[3]": {"test_system": "uninfected Madin Darby canine kidney cells (MDKC)", "test": "Toxicity on confluent monolayers of uninfected MDCK cells (morphology, Trypan blue vitality, cell count)", "format": "cell-based", "details": "for toxic effect or change in cell morphology: uninfected MDCK monolayers, concentrations used in the experiments", "method": "The toxicity was measured on the basis of microscopic examinations of cellular morphology, of measurement of cellular vitality after staining with Trypan blue and of the cell count. All compounds were diluted in RPMI, the final pH of the solution was approximately 7-7.3."}, "uninfected Vero cells": {"test_system": "uninfected Vero cells", "test": "Toxic effects in uninfected Vero cells", "format": "cell-based, Monkey"}}}
{"smiles": "N[C@@H](CCC(=O)N[C@@H](CS)C(=O)NCC(=O)O)C(=O)O", "note": "[GSH, γ-glutamylcysteinylglycine, reference compound]", "values": [{"measurement": "EC50", "setting": "Sendai virus", "value": 7.6, "unit": "mM"}, {"measurement": "entry speed into erythrocytes", "setting": "erythrocytes (RBCs)", "value": 2.33, "unit": "nmol/min/ml RBCs"}, {"measurement": "complete inhibition of the virus", "setting": "HSV-1; 10 mM", "value": "does not induce complete inhibition of the virus"}, {"measurement": "reduction in virus replication", "setting": "HSV-1; 10 mM", "value": "around 2.5 log"}]}
{"smiles": "CCCC(=O)N[C@@H](CCC(=O)N[C@@H](CS)C(=O)NCC(=O)O)C(=O)O", "note": "[GSH-C4, n-butanoyl γ-glutamylcysteinylglycine]", "values": [{"measurement": "glutathione S-transferase activity compared to that in the presence of GSH", "setting": "[1]", "value": 3.5, "unit": "%"}, {"measurement": "activity against the strain TK− compared with the wild type strain", "setting": "HSV-1 TK−", "value": "less active"}, {"measurement": "HSV-1 TK− titer", "setting": "HSV-1 TK−; 5 mM, 24 h", "value": "2.59 × 10^5 pfu/ml"}, {"measurement": "HSV-1 TK− titer", "setting": "HSV-1 TK−; 5 mM, 48 h", "value": "2.42 × 10^6 pfu/ml"}, {"measurement": "HSV-1 TK− titer", "setting": "HSV-1 TK−; 5 mM, 72 h", "value": "2.13 × 10^6 pfu/ml"}, {"measurement": "HSV-1 TK− titer", "setting": "HSV-1 TK−; 7.5 mM, 24 h", "value": "1.59 × 10^5 pfu/ml"}, {"measurement": "HSV-1 TK− titer", "setting": "HSV-1 TK−; 7.5 mM, 48 h", "value": "2.56 × 10^5 pfu/ml"}, {"measurement": "HSV-1 TK− titer", "setting": "HSV-1 TK−; 7.5 mM, 72 h", "value": "4.33 × 10^5 pfu/ml"}, {"measurement": "inhibition of virus titer", "setting": "HSV-1 TK−; 7.5 mM, 72 h after infection", "value": "approximately 1 log"}, {"measurement": "HSV-1 TK− titer", "setting": "HSV-1 TK−; 10 mM, 24 h", "value": "1.53 × 10^5 pfu/ml"}, {"measurement": "HSV-1 TK− titer", "setting": "HSV-1 TK−; 10 mM, 48 h", "value": "2.6 × 10^5 pfu/ml"}, {"measurement": "HSV-1 TK− titer", "setting": "HSV-1 TK−; 10 mM, 72 h", "value": "3.44 × 10^5 pfu/ml"}, {"measurement": "glutathione peroxydase activity compared to that in the presence of GSH", "setting": "[2]", "value": 1.8, "unit": "%"}, {"measurement": "toxicity for the cells, microscopic examination of the monolayers", "setting": "[3]; 7.5 mM, MDCK monolayers of the Sendai experiment", "value": "without being toxic for the cells"}, {"measurement": "toxic effect or change in cell morphology", "setting": "[3]", "value": "do not induce any toxic effect or change in cell morphology"}, {"measurement": "toxic effects in uninfected Vero cells", "setting": "uninfected Vero cells", "value": "does not induce any toxic effects"}, {"measurement": "virus in the supernatant of treated cells", "setting": "Sendai virus; 7.5 mM", "value": "no viruses were found"}, {"measurement": "inhibition at 5000 µM", "setting": "Sendai virus; 24 h p.i.", "value": 88, "unit": "%"}, {"measurement": "inhibition at 5000 µM", "setting": "Sendai virus; 48 h p.i.", "value": 93, "unit": "%"}, {"measurement": "EC50", "setting": "Sendai virus", "value": 3.6, "unit": "mM"}, {"measurement": "entry speed into erythrocytes", "setting": "erythrocytes (RBCs)", "value": 4.33, "unit": "nmol/min/ml RBCs"}, {"measurement": "virus particles in the cellular supernatant", "setting": "HSV-1; 10 mM, 48 h after infection", "value": "no virus particles were detected"}, {"measurement": "inhibition of virus replication 72 h after infection", "setting": "HSV-1; 72 h after infection", "value": "same inhibition"}, {"measurement": "protection from cytopathic effects induced by the virus", "setting": "HSV-1; HSV-1 infected Vero cells", "value": "protects the Vero cells from the cytopathic effects induced by the virus"}, {"measurement": "inhibition at 7500 µM", "setting": "HSV-1; Human alphaherpesvirus 1, Vero, 48 h, read-out: inhibition of viral replication compared to the control", "value": 60, "unit": "%"}]}
{"smiles": "CCCCCCCC(=O)NC(CCC(=O)NC(CS)C(=O)NCC(=O)O)C(=O)O", "note": "(stereo not drawn) [GSH-C8]", "values": [{"measurement": "toxic effect or change in cell morphology", "setting": "[3]", "value": "marked toxic effects"}]}
